Assay results published in patent US20160168118A1, “N-(5-QUINOLIN-6-YL)PYRIDIN-3-YL) BENZSULFAMIDE DERIVATIVES, PREPARATION METHOD AND THERAPEUTIC USE THEREOF” (SECOND MILITARY MEDICAL UNIVERSITY, PLA, priority 2012, published 2016).
Values after ≈ are worked out from the molar mass of the structure shown.

Columns and labels:
[1] = system: human lung carcinoma A549 xenografts; test: In vivo efficacy on human lung carcinoma A549 xenografts in nude mice; design: species or system BALB/C nude mice; conditions: ig, GSK2126458 3 mg/kg, compound 9 10 mg/kg
Description: Strain: BALB/C nude mice (SPF grade), Source: Shanghai Slac laboratory animal limited liability company, the production license number: SCXK (Shanghai) 2007-0005, the using license number: SYXK (Shanghai) 2009-0068, gender: male, weight: 18-20 g, the number of animals per group: 6.
A549 solid tumors which were well-grown were taken, cut to uniform bits of about 3 mm size under aseptic condition, every bit was inoculated to each mouse subcutaneously in the right armpit with trocar, and randomly divided into three groups, each treatment was:
1) Control (saline), gavage, the dose 25 ml/kg, 14 days;
3) Compound 9, gavage, the dose 10 mg/kg, 14 days;
Regrouped according to tumor size on the 13th day after inoculation, the animals of which tumor size is too large and too small were eliminated, the average tumor volume of each group are basically the same. Administration was carried out according to the above regimen; the dosing volume was 0.5 ml/20 g body weight. The axis (a), shorter diameter (b) of tumor was measured 2 times a week with an electronic digital caliper, calculate formula of tumor volume (tumor volume, TV) is as follows: TV=1/2×a×b2, calculate formula of relative tumor volume (relative tumor volume, RTV), is as follows: RTV=Vt/Vo, wherein Vo is the tumor volume measured at the time when dividing cages (i.e. dl), Vt is the tumor volume measured each time. […] T test was conducted. Animals were sacrificed 30 days after inoculation, dissected and the tumor mass were taken, tumor weight was measured.

PI3Kα = PI3Kα (Homo sapiens, UniProt P42336); test: Kinase-Glo Luminescent Kinase Assay, PI3Kα; format: biochemical
A549 = test: NCI cytotoxicity test, A549; format: cell-based; conditions: Homo sapiens
Description: (§1) Cytotoxicity Test of Compound 9, 10 and 17 on 60 Kinds of Human Cancer Cell Lines from the US National Cancer Institute

mTOR = mTOR (Homo sapiens, UniProt P42345); test: Lance Ultra Assay, mTOR; format: biochemical
OVCAR3 = test: NCI cytotoxicity test, OVCAR3; format: cell-based; conditions: Homo sapiens, OVCAR-3
Description: as §1

[2] = system: A549 (human lung cancer cells); test: MTT assay, A549; format: cell-based; conditions: 72 h
How it was run: (§2)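 Cells seeded at 4~5×10^4 cells/ml in DMEM with 5-10% FBS, treated after 24 h for 72 h at 37° C, 5% CO2, in duplicate wells. MTT (5 mg/ml) added for 4 h, formazan dissolved and OD read at 570 nm.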

[3] = system: U87MG (human brain star glioblastoma); test: MTT assay, U87MG; format: cell-based; conditions: U-87 MG, 72 h
How it was run: as §2

MCF7 = test: NCI cytotoxicity test, MCF7; format: cell-based; conditions: Homo sapiens
Description: as §1

[4] = Solubility test in buffer solution at pH=1; format: physicochemical; conditions: pH=1 buffer solution, simulated gastric fluid, thermodynamic from solid; buffer solution pH=1
Experimental: Compound 9 1.02 mg was precisely weighed and placed in 1.5 mL of EP tube, and 10 uL pH=1 buffer solution was added, vortexed for 30S and ultrasonic for 20 min. There was a lot of visible turbidity after that.
20 uL buffer was added and ultrasounded and the solution was found still turbid. Turbidity reduced after the solution was diluted to 1 mL and vortexed, while there still exist residual after diluted to 2 mL.

five human tumor cells = test: MTT assay, five human tumor cells (summary in words); format: cell-based; conditions: A549, HCT116, HepG2, ZR-75-30, U87MG
Experimental: 1. Sample preparation: After dissolved with DMSO (Merck), PBS (−) was added to make 1000 μg/ml solution or a uniform suspension, and then diluted with PBS (−) containing the DMSO. Doxorubicin (DOX) was used as the positive control drug.
2. Cell Line • 1) A549 (human lung cancer cells); 2) HCT116 (human colon cancer cells); 3) HepG2 (human hepatoma cells); 4) ZR-75-30 (human breast cancer cells); 5) U87MG (human brain star glioblastoma)
DMEM+5-10% FBS+double resistant
MTT assay. 100 μl cell suspension was added at a concentration of 4˜5×10^4 cells/ml to each well of a 96-well plate, and was set at 37° C., 5% CO2 in the incubator. After 24 h, the sample solution was added, 10 μl/hole, double wells were set, 37° C., acting for 72 h at 5% CO2. […] of 5 mg/ml was added to each well, the dissolving liquid was added after acted for 4 h, 100 μl/hole, kept in the incubator, and read 570 nm OD with MK-2 automatic microplate reader after dissolution.

Chain of PI3Kα (P42336 whole entry, species assumed): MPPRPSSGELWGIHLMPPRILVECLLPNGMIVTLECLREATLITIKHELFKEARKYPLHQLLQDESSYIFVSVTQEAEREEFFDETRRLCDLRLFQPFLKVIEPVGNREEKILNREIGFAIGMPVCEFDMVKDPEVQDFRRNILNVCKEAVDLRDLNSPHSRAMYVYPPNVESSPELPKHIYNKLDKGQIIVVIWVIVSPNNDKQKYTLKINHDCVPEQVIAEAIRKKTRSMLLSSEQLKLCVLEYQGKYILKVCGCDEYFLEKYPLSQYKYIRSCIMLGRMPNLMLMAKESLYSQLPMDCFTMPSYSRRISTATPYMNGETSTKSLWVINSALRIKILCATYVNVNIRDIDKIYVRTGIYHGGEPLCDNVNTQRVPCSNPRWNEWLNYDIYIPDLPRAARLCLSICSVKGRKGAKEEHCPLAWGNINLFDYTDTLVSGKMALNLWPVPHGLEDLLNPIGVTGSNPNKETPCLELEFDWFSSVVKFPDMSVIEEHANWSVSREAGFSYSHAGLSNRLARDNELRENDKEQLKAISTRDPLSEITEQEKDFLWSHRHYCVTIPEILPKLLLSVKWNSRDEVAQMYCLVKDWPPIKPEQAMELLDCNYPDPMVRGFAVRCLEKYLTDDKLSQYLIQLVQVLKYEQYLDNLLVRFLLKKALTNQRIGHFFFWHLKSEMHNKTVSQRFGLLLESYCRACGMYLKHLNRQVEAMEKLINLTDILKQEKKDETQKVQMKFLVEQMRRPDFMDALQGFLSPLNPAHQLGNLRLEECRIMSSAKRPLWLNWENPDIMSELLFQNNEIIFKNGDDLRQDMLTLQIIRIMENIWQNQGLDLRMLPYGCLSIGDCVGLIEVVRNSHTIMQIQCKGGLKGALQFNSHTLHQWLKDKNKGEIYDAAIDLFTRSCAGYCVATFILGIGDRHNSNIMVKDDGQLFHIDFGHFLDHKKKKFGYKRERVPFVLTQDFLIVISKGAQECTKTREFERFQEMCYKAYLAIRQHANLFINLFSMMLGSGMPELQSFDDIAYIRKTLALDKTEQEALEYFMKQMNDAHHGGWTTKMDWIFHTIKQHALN
Chain of PI3Kα (P27986 whole entry partner, species assumed): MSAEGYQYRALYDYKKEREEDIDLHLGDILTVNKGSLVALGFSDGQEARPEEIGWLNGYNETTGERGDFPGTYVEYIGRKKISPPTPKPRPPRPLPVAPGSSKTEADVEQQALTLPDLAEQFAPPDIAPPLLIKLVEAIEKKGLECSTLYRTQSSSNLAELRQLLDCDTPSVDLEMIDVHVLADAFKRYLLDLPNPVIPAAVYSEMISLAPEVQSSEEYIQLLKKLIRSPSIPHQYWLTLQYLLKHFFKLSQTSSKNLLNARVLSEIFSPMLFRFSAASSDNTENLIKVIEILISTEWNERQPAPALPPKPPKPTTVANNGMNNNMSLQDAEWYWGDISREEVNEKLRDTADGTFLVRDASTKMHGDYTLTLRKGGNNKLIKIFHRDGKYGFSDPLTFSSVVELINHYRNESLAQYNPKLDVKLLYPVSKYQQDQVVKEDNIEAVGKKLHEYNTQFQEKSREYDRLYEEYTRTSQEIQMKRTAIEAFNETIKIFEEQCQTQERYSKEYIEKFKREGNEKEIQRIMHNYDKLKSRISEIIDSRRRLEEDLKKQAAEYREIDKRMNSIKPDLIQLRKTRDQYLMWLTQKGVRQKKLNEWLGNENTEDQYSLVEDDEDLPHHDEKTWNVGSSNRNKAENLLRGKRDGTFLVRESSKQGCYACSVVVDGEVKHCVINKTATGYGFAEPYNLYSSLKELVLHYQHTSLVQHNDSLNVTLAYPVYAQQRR

COc1ncc(-c2ccc3nccc(-c4ccc(CN(C)C)cc4)c3c2)cc1NS(=O)(=O)c1ccc(F)cc1F [Compound 9, N-(5-(4-(4-((dimethylamine)methyl)phenyl)quinolin-6-yl)-2-methoxypyridine-3-yl)-2,4-difluorobenzenesulfonamide]
Animal wight (g) (tumor removed) ([1]; at end): 23.28 ± 1.34 g | RTV (d18) x ± SD ([1]; d18): 5.37 ± 1.86 | IC50 (PI3Kα): 1.3 nM | GI50 (A549): < 10 nM | IC50 (mTOR): 3.8 nM | GI50 (OVCAR3): < 10 nM | IC50 [2]: 0.00247 µg/mL (≈ 0.00441 µM) | IC50 [3]: 0.051 µg/mL (≈ 0.091 µM) | GI50 (MCF7): < 10 nM | solubility at 20 min [4]: 33.3 mg/mL (≈ 59400 µM) | in vitro proliferation inhibition (in words) (five human tumor cells): high in vitro proliferation inhibition
